Results taken from ChEMBL document CHEMBL5247647, “Phenothiazine-Based LSD1 Inhibitor Promotes T-Cell Killing Response of Gastric Cancer Cells” (J Med Chem, 2023).
Active and inactive are the calls of the source. No cut-off for these calls is given here.

Columns and labels:
BGC-823 [1] = experiment: Anticancer activity against human BGC-823 cells assessed as increase in CD3/CD28 activated T-cell killing response by measuring IFNgamma level at 5 to 20 uM incubated for 5 days by Sandwich ELISA; type: functional, cell-based; details: dose 5-20 µM, time 5.0 day
MFC [2] = experiment: Antitumor activity against mouse MFC cells xenografted in 615 mouse assessed as decrease in tumor weight at 10 to 50 mg/kg, po for 14 days; type: functional, organism-based; details: dose 10-50 mg/kg, time 14.0 day
BGC-823 [3] = experiment: Downregulation of PD-L1 expression in human LSD1 knockout BGC-823 cells at 5 to 20 uM incubated for 5 days by Western blot anlaysis; type: functional, cell-based; details: dose 5-20 µM, time 5.0 day
BGC-823 [4] = experiment: Antiproliferative activity against human BGC-823 cells assessed as inhibition of cell proliferation incubated for 48 hrs by SRB assay; type: functional, cell-based
[5] = target: T1, Lysine-specific histone demethylase 1A (Homo sapiens, UniProt O60341); experiment: Inhibition of human LSD1 in human BGC-823 cells assessed as inhibition of H3K4me2 demethylation at 5 to 20 uM incubated for 5 days by Western blot anlaysis; type: cell-based; details: dose 5-20 µM, time 5.0 day
[6] = target: T1, Lysine-specific histone demethylase 1A; experiment: Inhibition of human LSD1 in human BGC-823 cells assessed as inhibition of H3K4me3 demethylation at 5 to 20 uM incubated for 5 days by Western blot anlaysis; type: cell-based; details: dose 5-20 µM, time 5.0 day
BGC-823 [7] = experiment: Anticancer activity against human BGC-823 cells assessed as increase in CD3/CD28 activated T-cell killing response at 5 to 20 uM incubated for 5 days by DAPI staining based assay; type: functional; details: dose 5-20 µM, time 5.0 day
MAO-B = target: T2, MAO-B (Homo sapiens, UniProt P27338); experiment: Inhibition of recombinant human MAO-B at 10 uM
T2 sequence (P27338 whole entry): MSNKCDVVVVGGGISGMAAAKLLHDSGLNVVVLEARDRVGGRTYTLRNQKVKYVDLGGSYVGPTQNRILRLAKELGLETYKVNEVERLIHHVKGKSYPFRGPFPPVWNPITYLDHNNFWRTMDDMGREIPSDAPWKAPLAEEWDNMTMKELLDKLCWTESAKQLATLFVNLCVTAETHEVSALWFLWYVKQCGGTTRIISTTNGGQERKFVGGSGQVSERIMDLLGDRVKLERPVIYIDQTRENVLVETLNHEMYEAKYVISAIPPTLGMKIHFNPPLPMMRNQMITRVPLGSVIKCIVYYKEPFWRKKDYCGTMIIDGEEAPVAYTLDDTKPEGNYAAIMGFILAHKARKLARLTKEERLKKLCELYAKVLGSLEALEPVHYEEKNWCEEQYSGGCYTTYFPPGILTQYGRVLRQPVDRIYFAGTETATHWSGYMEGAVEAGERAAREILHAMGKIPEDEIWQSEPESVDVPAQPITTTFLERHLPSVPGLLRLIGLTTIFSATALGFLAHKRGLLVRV

BGC-823 [8] = experiment: Downregulation of PD-L1 expression in human LSD1 knockout BGC-823 cells transfected with […] K661A mutant plasmid at 20 uM incubated for 5 days by Western blot anlaysis; type: functional, cell-based; details: time 5.0 day
MFC [9] = experiment: Antitumor activity against mouse MFC cells xenografted in 615 mouse assessed as increase in infiltration of CD8+ T cells into tumor at 10 to 50 mg/kg, po for 14 days by immunohistochemistry; type: functional, organism-based; details: dose 10-50 mg/kg, time 14.0 day
[10] = Toxicity against 615 mouse xenografted with mouse MFC cells in assessed as pathological changes in liver at 10 to 50 mg/kg, po for 14 days by Hematoxylin and Eosin staining based microscopic analysis; type: organism-based; details: in vivo, 336 h, dose 10-50 mg/kg, time 14 day
MFC [11] = experiment: Antitumor activity against mouse MFC cells xenografted in 615 mouse assessed as increase in IFNgamma mRNA expression level in tumor at 10 to 50 mg/kg, po for 14 days; type: functional, organism-based; details: dose 10-50 mg/kg, time 14.0 day
MFC [12] = experiment: Antitumor activity against mouse MFC cells xenografted in 615 mouse assessed as increase in infiltration of CD4+ T cells into tumor at 10 to 50 mg/kg, po for 14 days by immunohistochemistry; type: functional, organism-based; details: dose 10-50 mg/kg, time 14.0 day
BGC-823 [13] = experiment: Downregulation of PD-L1 mRNA expression in human BGC-823 cells at 5 to 5 to 20 uM incubated for 5 days; type: functional, cell-based; details: dose 5-20 µM, time 5.0 day
[14] = target: Programmed cell death protein 1/Programmed cell death 1 ligand 1 (Homo sapiens) (UniProt Q15116+Q9NZQ7); experiment: Inhibition of PD-L1/PD-1 interaction in human BGC-823 cells assessed as decrease in binding of PD-1 to cell membrane at 5 to 20 uM incubated for 5 days followed by recombinant PD-1-Fc protein addition by confocal microscopy analysis; type: cell-based; details: dose 5-20 µM, time 5.0 day
MFC [15] = experiment: Downregulation of PD-L1 expression in mouse MFC cells at 5 to 20 uM incubated for 5 days by Western blot anlaysis; type: functional, cell-based; details: dose 5-20 µM, time 5.0 day
MFC [16] = experiment: Antiproliferative activity against mouse MFC cells assessed as inhibition of cell proliferation incubated for 48 hrs by SRB assay; type: functional, cell-based
MFC [17] = experiment: Antitumor activity against mouse MFC cells xenografted in 615 mouse assessed as decrease in intratumoral PD-L1 expression at 10 to 50 mg/kg, po for 14 days by Western blot analysis; type: functional, organism-based; details: dose 10-50 mg/kg, time 14.0 day
BGC-823 [18] = experiment: Anticancer activity against human LSD1 knockout BGC-823 cells assessed as increase in CD3/CD28 activated T-cell killing response at 5 to 20 uM incubated for 5 days by DAPI staining based assay; type: functional; details: dose 5-20 µM, time 5.0 day
MFC [19] = experiment: Antitumor activity against mouse MFC cells xenografted in 615 mouse assessed as decrease in Ki67 expression in tumor at 10 to 50 mg/kg, po for 14 days by immunohistochemistry; type: functional, organism-based; details: dose 10-50 mg/kg, time 14.0 day
[20] = Toxicity against 615 mouse xenografted with mouse MFC cells in assessed as pathological changes in heart at 10 to 50 mg/kg, po for 14 days by Hematoxylin and Eosin staining based microscopic analysis; type: organism-based; details: in vivo, 336 h, dose 10-50 mg/kg, time 14 day
MFC [21] = experiment: Antitumor activity against mouse MFC cells xenografted in 615 mouse assessed as increase in IL-2 mRNA expression level in tumor at 10 to 50 mg/kg, po for 14 days; type: functional, organism-based; details: dose 10-50 mg/kg, time 14.0 day

Question: What does the source list for `c1ccc2c(c1)Sc1ccccc1N2CCN1CCOCC1`?
Answer: Activity (BGC-823 [1]): Active; Activity (MFC [2]): Active; Activity (BGC-823 [3]): inactive; Activity (BGC-823 [4]): inactive; inhibition [5]: Active; inhibition [6]: inactive; Activity (BGC-823 [7]): Dose-Dependent Effect; inhibition at 10 µM (MAO-B): < 10%; Activity (BGC-823 [8]): inactive; Activity (MFC [9]): Active; Activity [10]: Non-Toxic; Activity (MFC [11]): Active; Activity (MFC [12]): Active; Activity (BGC-823 [13]): Dose-Dependent Effect; inhibition [14]: Dose-Dependent Effect; Activity (MFC [15]): Dose-Dependent Effect; Activity (MFC [16]): inactive; Activity (MFC [17]): Dose-Dependent Effect; Activity (BGC-823 [18]): inactive; Activity (MFC [19]): Active; Activity [20]: Non-Toxic; Activity (MFC [21]): Active
